Measurements as given in ChEMBL document CHEMBL1201862, “PubChem BioAssay data set” (2004).
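Assay format: 96-well plates, 48-hour exposure. GI50 is the concentration that inhibits growth by half.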 The source made the active and inactive calls. No stated cut-off is given here; in the data, active = GI50 up to about 1.1 µM and inactive = higher.

Experiments:
Experiment in all cases: DTP human tumour cell line panel, 48 h
OVCAR-4 = test system: OVCAR-4
NCI-H522 = test system: NCI-H522
NCI-H226 = test system: NCI-H226
OVCAR-3 = test system: OVCAR-3
HCT-116 = test system: HCT-116
DLD-1 = test system: DLD-1
SW-620 = test system: SW-620
SNB-75 = test system: SNB-75
A498 = test system: A498
RXF 393 = test system: RXF 393
HT-29 = test system: HT-29
ACHN = test system: ACHN
SF-539 = test system: SF-539
RPMI-8226 = test system: RPMI-8226
UACC-257 = test system: UACC-257
EKVX = test system: EKVX
SNB-19 = test system: SNB-19
CCRF-CEM = test system: CCRF-CEM
K562 = test system: K562
MCF7 = test system: MCF7

Measured: GI50

CCCCCCCCCCCC[N+](CCCCCCCCCCCC)=C1SCCS1
inactive: OVCAR-4 3.6 µM | NCI-H522 5.82 µM | NCI-H226 14.2 µM | OVCAR-3 7.76 µM | HCT-116 2.84 µM | DLD-1 8.47 µM | SW-620 3.29 µM | SNB-75 16 µM | A498 15.7 µM | RXF 393 3.45 µM | HT-29 3.36 µM | ACHN 12.5 µM | SF-539 12.5 µM | RPMI-8226 1.49 µM | UACC-257 9.14 µM | EKVX 13.1 µM

CN(C)c1ccc(N2C(=S)SC(=N\c3ccccc3)/C2=N/c2ccccc2)cc1
inactive: OVCAR-4 > 100 µM | SNB-19 > 100 µM | NCI-H522 > 100 µM | NCI-H226 > 100 µM | OVCAR-3 > 100 µM | CCRF-CEM > 100 µM | HCT-116 > 100 µM | SNB-75 > 100 µM | K562 > 100 µM | A498 > 100 µM | RXF 393 3.43 µM | MCF7 > 100 µM | RPMI-8226 > 100 µM

COc1ccc2c(c1)c1cc(OC)ccc1n2CCCCOc1ccc(-c2c3ccccc3c(-c3ccc(OCCCCn4c5ccc(OC)cc5c5cc(OC)ccc54)cc3)c3ccccc23)cc1
inactive: OVCAR-4 > 100 µM | SNB-19 > 100 µM | NCI-H522 > 100 µM | NCI-H226 > 100 µM | OVCAR-3 > 100 µM | CCRF-CEM > 100 µM | HCT-116 > 100 µM | DLD-1 > 100 µM | SW-620 > 100 µM | SNB-75 > 100 µM | K562 > 100 µM | ACHN > 100 µM | SF-539 > 100 µM | EKVX > 100 µM

CC(=O)C(C(=O)C(=O)Nc1cc(Cl)c(Cl)cc1Cl)c1csc(N)n1 (stereo not given)
inactive: OVCAR-4 > 100 µM | SNB-19 > 100 µM | NCI-H522 > 100 µM | NCI-H226 > 100 µM | CCRF-CEM > 100 µM | HCT-116 > 100 µM | DLD-1 > 100 µM | SW-620 > 100 µM | SNB-75 > 100 µM | K562 > 100 µM | A498 > 100 µM | RXF 393 > 100 µM | HT-29 > 100 µM | ACHN > 100 µM | SF-539 > 100 µM | RPMI-8226 > 100 µM | UACC-257 > 100 µM | EKVX > 100 µM

CC(C)c1ccccc1SCc1cc(=O)cc(CSc2ccccc2C(C)C)o1
inactive: OVCAR-4 19.5 µM | SNB-19 32.7 µM | NCI-H226 21.2 µM | OVCAR-3 17.9 µM | CCRF-CEM 26.9 µM | SW-620 34.2 µM | SNB-75 19.4 µM | K562 48.1 µM | A498 20.3 µM | RXF 393 31 µM | MCF7 18.2 µM | HT-29 19.8 µM | ACHN 32.6 µM | RPMI-8226 32.4 µM | UACC-257 20.5 µM | EKVX 19.3 µM

COc1ccc2nc3ccc(OC)cc3c([S+]([O-])CCCl)c2c1 (stereo not given)
inactive: OVCAR-4 5.05 µM | SNB-19 22.5 µM | NCI-H522 1.67 µM | NCI-H226 16.8 µM | OVCAR-3 2.2 µM | CCRF-CEM 2.42 µM | HCT-116 1.83 µM | SW-620 3.3 µM | SNB-75 17.8 µM | A498 16.8 µM | RXF 393 3.59 µM | MCF7 2.31 µM | HT-29 2.04 µM | ACHN 2.18 µM | SF-539 1.72 µM | RPMI-8226 2.11 µM | UACC-257 2.21 µM | EKVX 10.5 µM

CCC1(c2ccccc2)C(=O)N=C(c2ccccc2)N1CCc1ccccc1 (stereo not given)
inactive: OVCAR-4 > 100 µM | SNB-19 > 100 µM | NCI-H522 > 100 µM | NCI-H226 > 100 µM | OVCAR-3 > 100 µM | CCRF-CEM > 100 µM | HCT-116 > 100 µM | SW-620 > 100 µM | SNB-75 > 100 µM | K562 > 100 µM | A498 > 100 µM | RXF 393 > 100 µM | MCF7 > 100 µM | HT-29 > 100 µM | ACHN > 100 µM | SF-539 > 100 µM | RPMI-8226 > 100 µM | UACC-257 > 100 µM | EKVX > 100 µM

CC(NC(C#N)CC12CC3CC(CC(C3)C1)C2)c1ccccc1 (stereo not given)
inactive: SNB-19 > 100 µM | NCI-H522 > 100 µM | OVCAR-3 13.6 µM | CCRF-CEM 20.7 µM | HCT-116 34.8 µM | SW-620 54.8 µM | K562 23.1 µM | A498 > 100 µM | MCF7 48.9 µM | HT-29 31.3 µM | ACHN 47.6 µM | RPMI-8226 15.5 µM | UACC-257 > 100 µM | EKVX > 100 µM

N/N=C1\C(=O)N(c2ccc(Cl)c(Cl)c2)C(=O)C1C(=O)Nc1ccc(Cl)c(Cl)c1 (stereo not given)
inactive: OVCAR-4 80.4 µM | SNB-19 28.2 µM | NCI-H522 50.9 µM | OVCAR-3 49.9 µM | CCRF-CEM 34.4 µM | HCT-116 75.2 µM | DLD-1 64 µM | SW-620 91.4 µM | SNB-75 > 100 µM | K562 34.8 µM | A498 44.3 µM | RXF 393 > 100 µM | HT-29 49.9 µM | ACHN 43.2 µM | SF-539 79.6 µM | RPMI-8226 > 100 µM | UACC-257 71 µM | EKVX 89.1 µM

CC12Nc3ccccc3C1=C(c1ccccc1)CC1C(=O)OC(=O)C12 (stereo not given)
inactive: OVCAR-4 > 100 µM | SNB-19 > 100 µM | NCI-H522 > 100 µM | OVCAR-3 > 100 µM | CCRF-CEM > 100 µM | HCT-116 > 100 µM | DLD-1 > 100 µM | SW-620 > 100 µM | SNB-75 1.86 µM | K562 > 100 µM | RXF 393 > 100 µM | HT-29 > 100 µM | ACHN > 100 µM | SF-539 > 100 µM | RPMI-8226 > 100 µM | UACC-257 > 100 µM | EKVX > 100 µM

COC(=O)C1=C(OC(=O)/C=C/c2ccc(Cl)cc2)C(C(=O)OC)[C@@]2(O)[C@@H](C(=O)OC)[C@H](C)C[C@@H]1[C@@H]2C(=O)OC (stereo not given in full)
inactive: OVCAR-4 27.1 µM | SNB-19 30.8 µM | NCI-H522 6.81 µM | NCI-H226 20.7 µM | OVCAR-3 30.8 µM | CCRF-CEM 13.2 µM | HCT-116 23.8 µM | SW-620 28.4 µM | SNB-75 25.9 µM | K562 21.6 µM | RXF 393 27.2 µM | HT-29 26.1 µM | ACHN 22.2 µM | SF-539 17.6 µM | UACC-257 45.1 µM | EKVX 22.5 µM

CCOC(=O)C(NC(=O)Nc1ccccc1)(Nc1cccc(Cl)c1)C(F)(F)F (stereo not given)
inactive: SNB-19 > 100 µM | NCI-H522 92.9 µM | NCI-H226 > 100 µM | OVCAR-3 > 100 µM | CCRF-CEM 45.1 µM | HCT-116 > 100 µM | SW-620 > 100 µM | SNB-75 46.7 µM | K562 > 100 µM | A498 > 66.4 µM | RXF 393 20.7 µM | MCF7 > 100 µM | HT-29 > 100 µM | ACHN > 100 µM | SF-539 > 100 µM | RPMI-8226 > 100 µM | UACC-257 > 100 µM | EKVX > 100 µM

C=CCn1c(=O)c(C)cn(COCCO)c1=O
inactive: SNB-19 > 100 µM | NCI-H522 > 100 µM | NCI-H226 > 100 µM | OVCAR-3 > 100 µM | CCRF-CEM > 100 µM | SW-620 > 100 µM | SNB-75 > 100 µM | K562 > 100 µM | A498 > 10 µM | RXF 393 > 100 µM | MCF7 > 100 µM | HT-29 > 100 µM | ACHN > 100 µM | SF-539 > 100 µM | RPMI-8226 > 100 µM | UACC-257 > 100 µM | EKVX > 100 µM

O=NN(CCCl)C(=O)N[C@H]1CCCC[C@@H]1Cl
inactive: OVCAR-4 > 100 µM | SNB-19 > 100 µM | NCI-H522 > 100 µM | NCI-H226 > 100 µM | OVCAR-3 > 100 µM | CCRF-CEM 19.6 µM | HCT-116 50.6 µM | DLD-1 > 100 µM | SW-620 > 100 µM | SNB-75 47 µM | K562 55.8 µM | A498 > 100 µM | RXF 393 > 100 µM | HT-29 79.6 µM | ACHN 57.7 µM | SF-539 24.9 µM | RPMI-8226 43.8 µM | EKVX > 100 µM

NC(=S)N/N=C1\c2ccccc2CCC1CCC1(O)CCc2ccccc2C1=O (stereo not given)
inactive: OVCAR-4 34 µM | SNB-19 34.8 µM | OVCAR-3 18 µM | CCRF-CEM 22.6 µM | HCT-116 18.7 µM | SW-620 28 µM | SNB-75 15.7 µM | K562 > 10 µM | RXF 393 16.2 µM | MCF7 17.8 µM | HT-29 19.8 µM | ACHN 35.5 µM | SF-539 15.3 µM | RPMI-8226 24.9 µM | UACC-257 18 µM | EKVX 11.4 µM

C[S+](C)([O-])=Nn1c(=O)n2n(c1=O)[C@H]1CC[C@@H]2C1
inactive: SNB-19 > 100 µM | NCI-H522 > 100 µM | NCI-H226 > 100 µM | OVCAR-3 > 100 µM | CCRF-CEM > 100 µM | SW-620 > 100 µM | SNB-75 > 100 µM | K562 > 100 µM | A498 > 100 µM | RXF 393 > 100 µM | MCF7 > 100 µM | HT-29 > 100 µM | ACHN > 100 µM | SF-539 > 100 µM | RPMI-8226 > 100 µM | UACC-257 > 100 µM | EKVX > 100 µM
